The values below come from patent US11485697B2, “Antimalarial compositions and uses thereof” (THE SCRIPPS RESEARCH INSTITUTE, priority 2016, dated 2022).

What is called AUC(0-inf) is total exposure, with the tail of the curve extrapolated. In general, AUC(0-t) refers to exposure summed from dosing to a finite time, without extrapolation to infinity. One may read the CL/F as clearance divided by bioavailability, as obtained after extravascular dosing. As a reminder, the Cmax is the maximum level reached in the sampled fluid or tissue. Usually Tmax stands for the time at which the peak concentration occurs.

The subject of one series is sporozoites. The experiment in a line: Sporozoite challenge at day 14 following IM administration of Compound 2 (percent protection, FIG. 2A). The series is classed as in vivo, mouse. As to conditions: IM Compound 2. As to the method: The exposure is not highly variable between animals in a given group. The Ctrough is about 83±32 nM for animals that are protected from infection.

Series [1] can be described thus: Dog PK, crystalline compound 2 suspension injected intramuscularly (Table 24A). Also noted: Clast: unit not given here. As to conditions: plasma analyte = labelled substance; for half-life / plasma exposure (in words): after IM crystalline Compound 2 10 mg/kg suspension. The format is in vivo. The protocol: Compound 2 was dosed in dog at 10 mg/kg (Injection volume: 0.5 mL/kg). The material was formulated as a 20 mg/mL suspension in 3% TPGS and 1% HPMC E5. […] Half-life of ELQ-300 was about […] as that of compound 2 (205 and 124 respectively).

Series [2] is described as follows: Key in vitro ADME for Compound 2 (Table 36). As to conditions: for half-life: read-out: Hepatocyte T1/2.
Series [3] can be described thus: Atovaquone plasma concentration following PO administration of Compound 27 (Table 29). The format is in vivo, mice. As to conditions: Compound 27, PO; 28 d. As to the method:
Animals (Male CD-1 mice, 7-9 weeks) were obtained from an approved vendor (SLAC Laboratory Animal Co. Ltd., Shanghai, China; or SIPPR-B&K Laboratory Animal Co. Ltd., Shanghai, China).
Animals were fasted at least 12 hours prior to the administration. All animals had access to Certified Rodent Diet (Catalog #M01-F, SLAC Laboratory Animal Cl. Ltd., Shanghai, China) ad libitum 4 hours post dosing.
Appropriate amount of test compound was accurately weighed and mixed with appropriate volume of vehicle to get a clear solution or a uniform suspension, vortexing or sonication in water bath was sometimes needed. The formulations were prepared on the day of dosing. Animals were dosed within four hours after the formulation was prepared. Two 20 μL aliquots of each formulation were removed from each of the formulation solutions, transferred into 1.5 mL of polypropylene microcentrifuge tubes and run dose validation by LC/UV or LC-MS/MS.
The PO dose formulation was administered via oral gavage following facility SOPs. […]
• Aliquots of the formulations were collected in the middle position of each dose formulation in duplicate. • The concentrations of the test compound in dose formulation samples were determined by the LC/UV or LC/MS/MS method. […]
Plasma concentration versus time data was analyzed by non-compartmental approaches using the Phoenix WinNonlin 6.3 software program. […]

Where [4] appears, read: after IM crystalline Compound 2 10 mg/kg, 20 mg/mL suspension in 3% TPGS, 1% HPMC E5.

Turning to `CCCC(=O)OCOc1c(-c2ccc(Oc3ccc(OC(F)(F)F)cc3)cc2)c(C)nc2cc(OC)c(Cl)cc12` [Compound 2, (6-chloro-7-methoxy-2-methyl-3-(4-(4-(trifluoromethoxy)phenoxy)phenyl)quinolin-4-yloxy)methyl butyrate], the “Ctrough (ELQ-300) for animals that are protected from infection” value with sporozoites is recorded as “about 83±32 nM”. In addition, the values for the half-life in series [1], in series [2] (Dog hepatocytes) and in series [2] (Human hepatocytes) were 124 h, 0.367 h and 1.28 h, respectively. In series [1], the “plasma exposure (in words)” value is given as “low but detectable throughout the duration of the study”. The AUC(0-inf) in series [1] (setting [4]) is 18.1 µM·h. In series [1] (setting [4]), this molecule came in with an exposure AUC(0-t) of 16.4 µM·h. Also, the CL/F in series [1] (setting [4]) was 14.4 mL/min/kg. For the same molecule, the Clast in series [1] (setting [4]) is recorded as 4.5 (4.7). In addition, in series [1] (setting [4]), the Cmax came out at 730 nM. The T1/2 in series [1] (setting [4]) is 124 (34) h. In series [1] (setting [4]), the Tmax worked out at 3 h. Further, the “Liver S9 % remaining after 2 hours” value in series [2] (Dog liver S9) was found to be 47%; in series [2] (Human liver S9) it was 35%. The “Plasma % remaining after 2 hours” value in series [2] (Dog plasma) is recorded as 83%; in series [2] (Human plasma), 82%; in series [2] (Monkey plasma), 85%; in series [2] (Mouse plasma) it was 0%; in series [2] (Rat plasma) it was 0%.
For the molecule `CCCCCCCCCC(=O)OC1=C(C2CCC(c3ccc(Cl)cc3)CC2)C(=O)c2ccccc2C1=O` (stereo not shown) [Compound 27, 3-((1r,4r)-4-(4-chlorophenyl)cyclohexyl)-1,4-dioxo-1,4-dihydronaphthalen-2-yl decanoate], in series [3], the “average atovaquone plasma concentration” value is “BQL”.
As to `COc1cc2[nH]c(C)c(-c3ccc(Oc4ccc(OC(F)(F)F)cc4)cc3)c(=O)c2cc1Cl` [ELQ-300, 6-chloro-7-methoxy-2-methyl-3-(4-(4-(trifluoromethoxy)phenoxy)phenyl)quinolin-4(1H)-one, reference compound], in series [1], the half-life is 205 h and the “plasma exposure (in words)” value was “several orders of magnitude higher than that of Compound 2”. Also, in series [1] (setting [4]), the AUC(0-inf) stood at 1290 µM·h, the AUC(0-t) turned out to be 1140 µM·h, the CL/F amounted to 0.23 mL/min/kg and the concentration peaked (Cmax) at 4640 nM. Besides, in series [1] (setting [4]), the T1/2 is reported as 205 (39) h and the Tmax was determined as 48 h.
